Assay results reported in patent publication US11497796B2, “Agents directed against a cis RGMa/neogenin interaction or lipid rafts and use of the same in methods of treatment” (UNIVERSITY HEALTH NETWORK, priority 2013, dated 2022).

Legend:
[1] = test system: RGC axons in injured optic nerve; experiment: Optic nerve crush, RGC axon regeneration (GAP-43) and intraretinal integrity; format: in vivo, rat; details: for intraretinal integrity of RGC axons (CTB-FITC): after optic nerve crush
Protocol: All animals were female Sprague-Dawley rats weighing 250-300 g, which were kept in a pathogen free environment. […] Injections were performed using a 10-μl Hamilton syringe actuated by a computer controlled Picopump (World Precision Instruments). […] The needle was left in place for 10 min after each injection and slowly withdrawn to prevent reflux of the injected solutions up the needle tract.
Additionally, for crushing nerve surgical procedures, animals were placed in a stereotaxic frame and ventilated with isoflurane (2%; 0.8 L/min O2) through a gas anesthesia mask. […] The optic nerve was crushed using fine self-closing forceps for 6 seconds. Eventually, the orbital contents were gently returned to their original location and the initial incision was closed. Following surgery, under a heat lamp, animal were maintained at 37° C. in the normothermic condition and they were given Ketoprofen (5 mg/mL, dosage for rats: 0.1 mL/100 g bodyweight) and sterile saline to ease postsurgical recovery.
In order to evaluate the effects of 4Ig, N-Raft, and MβCD on RGC survival and regeneration after optic nerve crush, 4 μl intraocular injection of 4Ig (250 ng/μl) and N-Raft (150 ng/μl) solutions were delivered at 3 and 10 days after injury. Additionally, these two groups received 4Ig and N-Raft in a dose of 1 mg/kg, via intrajugular vein at 3 and 10 days postcrush. Separately, animals in MβCD group, received intraperitoneal injection of MβCD at 1000 mg/kg/week for 3 weeks after nerve crush on a once-a-day schedule.
Firstly, RGC axon regeneration and intraretinal integrity was examined at twenty-one days after optic nerve crush. […]. CTB-FITC was anterogradly transported within the axon to reach the synaptic membrane.
RGC axon regeneration was examined at twenty-one days after optic nerve crush. Animals were perfused with 4% paraformaldehyde via the ascending aorta, while the descending aorta was clamped off, and the optic nerves were removed. The nerves were post-fixed overnight in the same fixative solution, plus 30% sucrose in PBS for 7 days at […]. The fixed nerves were consecutively sectioned at 14 μm in thickness with a Leica CM1950 cryostat microtome. The slides were first incubated overnight at 4° C. in primary antisera directed against growth associated protein-43 (GAP-43), a marker of regenerating retinal ganglion cell axons in both neonatal and adult RGCs. Primary antisera (rabbit polyclonal, 1:250, Cell Signaling Technology/NEB) were diluted in PBS containing 0.3% Triton X-100 and 3% normal goat serum. Following primary antibody incubation, sections were rinsed three times for 15 minutes in PBS and followed by three hours incubation with FITC labeled secondary antibody at room temperature.
The slides were then rinsed three times for 15 minutes in PBS before cover slipping with 50:50 glycerol/PBS. The total number of regenerating axon growth cones within bins of the optic nerve, beginning anterior to the crush site and proceeding distally, were quantified. The bins were as follows: 0-250, 250-500, and >500 μm. A total of four equally spaced sections through the width of each optic nerve were examined and quantified using a Leica DM LFSA microscope (20× objective) with an Andor iXon 885+ camera, with EMgain applied.

[2] = test system: retinal ganglion cells (RGCs); experiment: RGC survival in vivo 14 days after axotomy; design: species or system rat; details: for increase of RGC survival vs. control / RGC survival: injected intra-ocularly, 14 days after axotomy; for RGC survival: control 361±19
[3] = test system: corticospinal tract axons; experiment: Spinal cord injury, anterograde axonal tracing of the corticospinal tract with BDA; format: in vivo, rat; details: for maximal distance of labeled fibers caudal to the lesion site: 4IG IV or MBCD IP; for average length of the longest axon: BDA tracing post-SCI, respective controls 18±7 and 128±118 μm
Protocol: To visualize axons from the CST, anterograde axonal tracing with BDA was performed 6 weeks after SCI following completion of the functional assessment. Animals (n=3-4) from each group were randomly selected for BDA injection. Under deep anesthesia with 2% isofluorane with 1:2 NO:O2, rats were positioned in a stereotaxic frame and craniotomy was performed bilaterally to expose the sensorimotor cortex. BDA (10%, 10,000 MW; Invitrogen (Life Technologies)) was dissolved in 0.01M PBS and injected at 6 sites in each sensorimotor cortex using the following coordinates in reference to bregma: 1) 0.5 mm posterior and 1 mm lateral, 2) 0.5 mm posterior and 2 mm lateral, 3) 1 mm posterior and 1 mm lateral, 4) 1 mm posterior and 2 mm lateral, 5) 1.5 mm posterior and 1 mm lateral, 6) 1.5 mm posterior and 2 mm lateral. At each site, 1 μl of BDA was injected 1.2 mm from the surface of the cortex. Injections were made stereotactically with the aid of an operating microscope using a motorized microinjector at a rate of 0.5 μl/min with a 10 μl Hamilton syringe and a 32-gauge needle. The needle was left in place for an additional 2 min after injection to prevent leakage and the skin was closed with 6-0 Vicryl. Animals were allowed to survive for 3 more weeks and then intracardially perfused with 4% paraformaldehyde in 0.1 M PBS. BDA tissue including a 1.5 cm segment of tissue encompassing the lesion site was excised and processed as either 20 μm cryosections on slides or free-floating 30 μm sections. Free-floating sections were collected in 24-well plates containing PBS. Sections were pre-treated with 1% H2O2 in methanol for 10 min at RT, rinsed with PBS containing 0.5% Triton X for 30 min, and incubated in avidin-biotin peroxidase complex (Vectostain Elite ABC Kit Standard, Vector Laboratories, Burlington, ON, Canada) for 1 h at RT. Slides were washed with PBS, and then incubated with fluorescent Alexa-488 goat anti-mouse secondary antibody (1:500; Invitrogen (Life Technologies)) for 1 h at RT and coverslipped with Vectashield mounting medium containing DAPI (4′, 6-diamidino-2-phenyl-indole) (Vector Laboratories, Burlington, Ontario, Canada) nuclear counterstain.

N-Raft: peptide spanning amino acids 28-73 of RGMa (SEQ ID NO:2) (SPCKILKCNSEFWAATSGSHHLGAEETPEFCTALRAYAHCTRRTAR; N-Raft - amino acids 28-73 of RGMa)
regeneration beyond the lesion site ([1]; 21 days after crush): comparable to 4Ig
intraretinal integrity of RGC axons (CTB-FITC) [1]: thicker axon bundles throughout the retina
increase of RGC survival vs. control [2]: about 2 fold
RGC survival [2]: 652±24 cells/mm^2

methyl-β-cyclodextrin [MβCD, reference compound]
average number of axons per section, 250-500 μm ([1]; IP injection): 10.7±0.9
average number of axons per section, greater than 500 μm ([1]; IP injection): 8.4±1.4
average number of axons per section, less than 250 μm ([1]; IP injection): 23.7±1.2
average number of axons per section higher than controls ([1]; IP injection, all distances): 7.1 fold
intraretinal integrity of RGC axons (CTB-FITC) [1]: thicker axon bundles throughout the retina
increase of RGC survival ([2]; systemic application (intraperitoneal, IP)): about 2 fold
maximal distance of labeled fibers caudal to the lesion site [3]: about 4 mm
average length of the longest axon [3]: 2195±335 μm

B1: 4Ig: four immunoglobulin-like domains of Neogenin, amino acids 1 to 383 of Accession No. AAC59662 (SEQ ID NO:1) (protein, listed as Gallus gallus)
chain: RSGPRSPLTGSVVRTFTPFYFLVEPMDILSVRGASVIMNCSSYCETPPKIEWKKDGTLLNLVSDDRRQLLPDGSLLINSVVHSKHNKPDEGYYQCVATVESLGSIVSRTAKLTVAGLPRFTSQPELSSVYKGNSAILNCEVNVDLAPFVRWEQDRQPLSLDDRVFKLPSGALLIGNATDTDGGFYRCVIESGGTPKYSEEAELKILPDPEEPQSLVFVRQPSSLTKVTGQNAVFPCVAGGFPTPYVRWTKNGEELITEDSERFALRAGGSLLISDVTEEDVGTYTCIADNENETIEAQAELAVQVPPEFLKRPANIYAHESMDIVFECEVTGKPTPTVKWVKNGDVVIPSDYFKIVKEHNLQVLGLVKSDEGFYQCIAENDVGNAQAGAQLIILDLDVAIPTLPPTSLTSATNDHLAPATTGPLPTAPRDVVATLVSTRFIRLTWRTPVSDPQGDNLTYSIFYTKEGINRERVENTSRPGETQVMIQNLMPETVYVFRVVAQNKHGHGESSAPLKVATQPEVQLPGPAPNIRAYAGSPTSVTVTWETPLSGNGEIQNYKLYYMEKGQDSEQDVDVAGLSYTITGLKKYTEYSFRVVAYNKHGPGVSTQDVVVRTLSDVPSAAPQNLTLEARNSKSIMLHWQPPPAGTHSGQITGYKIRYRKVSRKSDVTESVGGTQLFQLIEGLERGTEYNFRIAAMTVNGTGPATDWVSAETFESDLDESRVPEVPSSLHVRPLVTSIVVSWTPPENQNIVVRGYAIGYGIGSPHAQTIKVDYKQRYYTIENLDPSSHYVITLKAFNNVGEGIPLYESAVTRPHSDTSEVDLFVINAPYTPVPDPSPMMPPVGVQASILSHDTIRITWADNSLPKNQKITDARYYTVRWKTNIPANTKYKTANATTLSYLVTGLKPNTLYEFSVMVTKGRRSSTWSMTAHGTTFELVPTSPPKDVTVVSKEGKPRTIIVNWQPPSEANGKITGYIIYYSTDVNAEIHDWVIEPVVGNRLTHQIQELTLDTPYYFKIQARNSKGMGPMSEAVQFRTPKAESSDKMPNDQASGSAGKGSRPVDVGPDYKPPLSGSNSPHGSPTSPLDSNMLLVIIVSVGVITIVIVVIVAVFCTRRTTSHQKKKRAACKSVNGSHKYKGNSKDVKPPDLWIHHERLELKPIDKSPDPNPIMTDTPIPRNSQDITPVDNSMDSNIHQRRNSYRGHESEDSMSTLAGRRGMRPKMMMPFDSQPPQPVISAHPIHSLDNPHHHFHSGSLASPTRSYLHHQVSPWPVGTSMSHSDRANSTESVRNTPSSDTMPASSSQPCADHQDPDSSSGAYLGSAQEEDAAQSLPTAHVRPSHPLKSFAVPAVPAAGSAYDPTLPSTPLLTQQAPSHPVHSVKTASIGTLGRTRPPMPVVVPSAPDVQETTRMLEDSESSYEPDELTKEMAHLEGLMKDLNAITTA
modifications: Neogenin - Accession No. AAC59662
increase in number of regenerating axons relative to controls ([1]; 21 days after crush): 5.7 fold
number of regenerating axons, greater than 500 μm ([1]; 21 days after crush, controls 76±24): 410±64
number of regenerating axons, 250-500 μm ([1]; 21 days after crush, controls 108±12): 640±128
number of regenerating axons, less than 250 μm ([1]; 21 days after crush, controls 224±36): 1134±68
intraretinal integrity of RGC axons (CTB-FITC) [1]: thicker axon bundles throughout the retina
increase of RGC survival vs. control [2]: about 2 fold
RGC survival [2]: 682±21 cells/mm^2
maximal distance of labeled fibers caudal to the lesion site [3]: about 4 mm
average length of the longest axon [3]: 2875±228 μm
fiber length at 6 weeks compared to 4 weeks following injury ([3]; IV-injection): significantly longer at 6 weeks
